Like-named read-outs stand apart in the source and are kept apart here.
Legend:
[1] = tested on: Influenza A/California/7/2009 (H1N1)pdm09; test: organism not typed; type: cell-based, Influenza virus; details: for IC50: read-out: IC50 ± SD Influenza Virus; for log reduction at 50 µM: read-out: Δlog10(TCID50) Influenza Virus; for SI (selectivity index), the ratio of CD50 to IC50: influenza virus
SARS-CoV-2 [2] = test: microbe, parasite or virus in culture; type: cell-based, SARS-CoV-2 (hCoV-19/Russia/Moscow-PMVL-12/2020 strain)
MDCK cells = details: concentration decreasing cell number by 50%
[3] = target: SARS-CoV-2 RdRp holoenzyme (nsp12, nsp7, nsp8) (Severe acute respiratory syndrome coronavirus 2, UniProt P0DTD1); test: biochemical; type: biochemical; details: for Inhibition of RNA extension by RdRp: 1 mM inhibitor pre-incubated with RdRp before RNA substrate (Figure 3A); for IC50: RdRp pre-incubated with inhibitor, then RNA substrate and ATP added, read-out: IC50 for inhibition of RdRp activity (RNA extension)
SARS-CoV-2 [4] = test: microbe, parasite or virus in culture; type: cell-based, SARS-CoV-2 (hCoV-19/Russia/Moscow-PMVL-12/2020 strain); details: for log reduction at 20 µM: measured at 20 µM
SARS-CoV-2 PIK35 strain = tested on: SARS-CoV-2 PIK35 strain; parameters: method as in PMID 35127150; details: Vero cells, read-out: EC50, inhibition of the reproduction of SARS-CoV-2; cited from earlier work
SARS-CoV-2 RdRp [5] = target: T1, SARS-CoV-2 RdRp (Severe acute respiratory syndrome coronavirus 2, UniProt P0DTD1); details: cited from earlier work
SARS-CoV-2 RdRp [6] = target: T1, SARS-CoV-2 RdRp; test: Electrophoretic mobility shift assay of RNA binding by RdRp; details: 1 mM inhibitor incubated with RdRp before RNA substrate
SARS-CoV-2 RdRp [7] = target: T1, SARS-CoV-2 RdRp; parameters: method as in PMID 33674802; details: interferes with template and primer RNA binding; cited from earlier work
[8] = concentration reducing the cell number by 50%, MTT
[9] = African green monkey (Chlorocebus aethiops)
[10] = Severe acute respiratory syndrome coronavirus 2, Vero C1008, Vero E6, vs DMSO-treated control, read-out: Δlog10(TCID50) SARS-CoV-2
[11] = Severe acute respiratory syndrome coronavirus 2, Vero C1008, 96 h, read-out: Δlog10(RNA), logarithmic change in the SARS-CoV-2 RNA levels

| Molecule | Anti-SARS-CoV-2 activity grade (SARS-CoV-2 [2]) | CD50 ± SD MDCK (MDCK cells) [µM] | CD50 ± SD Vero E6 (Vero E6 cells; [9]) [µM] | Inhibition of RNA extension by RdRp [3] | IC50 ([1]; MDCK) [µM] | log reduction at 50 µM ([1]; at 50 µM, MDCK cells) | log reduction at 50 µM (SARS-CoV-2 [4]; [10]) | log reduction at 50 µM (SARS-CoV-2 [2]; [11]) | other results |
| --- | --- | --- | --- | --- | --- | --- | --- | --- | --- |
| 1-(β-D-Ribofuranosyl)-5-(4-tert-butylphenoxy)-uracil [Compound 13] | Moderate activity | >1000 | – | – | – | – | – | – | CD50 ± SD Vero E6 (Vero E6 cells; [8]): >500 µM; Δlog10(TCID50) Influenza Virus ([1]; at 50 µM, MDCK cells): 0.5; IC50 [1]: > 50 µM; Δlog10(RNA), logarithmic change in the SARS-CoV-2 RNA levels (SARS-CoV-2 [2]): 0.8 |
| CC(C)(C)c1ccc(Nc2cn(C3C=CC(O)C3)c(=O)n(C3C=CC(O)C3)c2=O)cc1 (centres unmarked) [Compound 9] | – | 392 ± 9 | 220 ± 23 | weaker effects | > 50 | 0.5 | 0.5 | 0.8 | – |
| CC(C)(C)c1ccc(-c2cc3cn(C4C=CC(O)C4)c(=O)nc3[nH]2)cc1 (centres unmarked) [Compound 2, 1-(4’-hydroxy-2’-cyclopenten-1-yl)-6-(4-tert-butylphenyl)-3H-pyrrolo [2,3-d]-pyrimidine-2-one] | – | 68 ± 5 | 150 ± 15 | – | ~1 | 1.5 | – | 0.3 | SI (selectivity index), the ratio of CD50 to IC50 ([1]; MDCK cells): 49.60; IC50 [1]: 1.37 ± 0.28 µM; log reduction at 20 µM (SARS-CoV-2 [4]; [10]): 0.5; EC50 (SARS-CoV-2 PIK35 strain): 53 µM |
| CC(C)(C)c1ccc(Nc2cn(C3C=CC(O)C3)c(=O)[nH]c2=O)cc1 (centres unmarked) [Compound 8] | Moderate activity | 552 ± 35 | >500 | – | > 50 | 0.5 | 0.5 | 1.1 | Effect on SARS-CoV-2 infectivity, TCID50 in Vero cells (SARS-CoV-2 [4]; summary of Table 1): weak protection; Effect on SARS-CoV-2 viral RNA titer (SARS-CoV-2 [2]; summary of Table 1): visible reduction |
| CCCCCc1ccc(-c2cc3cn([C@@H]4O[C@H](CO)[C@@H](O)[C@H]4O)c(=O)[nH]c-3n2)cc1 [Compound 6, 3-(β-D-ribofuranosyl)-6-(4-pentylphenyl)-3H-pyrrolo [2,3-d]-pyrimidine-2-on] | – | 614 ± 52 | 450 ± 166 | – | > 50 | 0 | 0 | 0.2 | Effect on SARS-CoV-2 infectivity, TCID50 in Vero cells (SARS-CoV-2 [4]; summary of Table 1): inactive; Effect on SARS-CoV-2 viral RNA titer (SARS-CoV-2 [2]; summary of Table 1): inactive |
| CCCCCc1ccc(-c2cc3cn(C4C=CC(O)C4)c(=O)nc3o2)cc1 (centres unmarked) [Compound 3] | Moderate activity | 442 ± 21 | >500 | completely blocked RNA synthesis | > 50 | 0 | – | 1.3 | log reduction at 20 µM (SARS-CoV-2 [4]; [10]): 0.5 |
| O=C(N[C@@H](Cc1ccc(O)cc1)C(=O)O)c1cc(-c2ccccc2)c(=O)n2c1sc1ccc(OC3CCCCC3)cc12 [HeE1-2Tyr] | – | – | – | – | – | – | – | – | IC50 (SARS-CoV-2 RdRp [5]): 27 µM |
| CC(C)(C)c1ccc(Oc2cn(C3C=CC(O)C3)c(=O)[nH]c2=O)cc1 (centres unmarked) [Compound 11] | Moderate activity | >1000 | 440 ± 6 | – | > 50 | -0.5 | – | 0.7 | log reduction at 20 µM (SARS-CoV-2 [4]; [10]): 1 |
| CCCCCc1ccc(-c2cc3cn(C4C=CC(O)C4)c(=O)nc3[nH]2)cc1 (centres unmarked) [Compound 1, 1-(4’-hydroxy-2’-cyclopenten-1-yl)-6-(4-pentylphenyl)-3H-pyrrolo [2,3-d]-pyrimidine-2-one] | – | 89 ± 12 | 153 ± 5 | completely blocked RNA synthesis | > 50 | 0 | – | – | IC50 [3]: 44 ± 2 µM; Inhibition of RNA binding by RdRp, EMSA (SARS-CoV-2 RdRp [6]): fully prevented RNA binding; log reduction at 20 µM (SARS-CoV-2 [4]; [10]): 1; Decrease of the TCID50 value (SARS-CoV-2 [4]; summary of Table 1): ~ 10 fold; log reduction at 10 µM (SARS-CoV-2 [2]; Severe acute respiratory syndrome coronavirus 2, Vero C1008, 96 h, measured at 10 µM (footnote *), Vero E6, vs DMSO, read-out: Δlog10(RNA), logarithmic change in the SARS-CoV-2 RNA levels): 1.5; Decrease of the amount of viral RNA (SARS-CoV-2 [2]; summary of Table 1): > 10 fold; EC50 (SARS-CoV-2 PIK35 strain): 21 µM |
| CCCCCc1ccc(-c2cc3cn(COCCO)c(=O)nc3o2)cc1 [Compound 5, 3-((2-(Hydroxy)ethoxy)methyl)-6-(4-pentylphenyl)-3H-furano [2,3-d]-pyrimidine-2-on] | Moderate activity | 686 ± 46 | 400 ± 98 | completely blocked RNA synthesis | ~1 | 1.5 | 1 | 0.3 | IC50 [3]: 72 ± 20 µM; IC50 [1]: 1.34 ± 0.33 µM; Effect on SARS-CoV-2 infectivity, TCID50 in Vero cells (SARS-CoV-2 [4]; summary of Table 1): stronger effects; Effect on SARS-CoV-2 viral RNA titer (SARS-CoV-2 [2]; summary of Table 1): only weakly affected |
| Cc1ccc(C(=O)Nc2ccc(S(=O)(=O)O)c3cc(S(=O)(=O)O)cc(S(=O)(=O)O)c23)cc1NC(=O)c1cccc(NC(=O)Nc2cccc(C(=O)Nc3cc(C(=O)Nc4ccc(S(=O)(=O)O)c5cc(S(=O)(=O)O)cc(S(=O)(=O)O)c45)ccc3C)c2)c1 [suramin] | – | – | – | – | – | – | – | – | Affinity of interaction with RdRp (SARS-CoV-2 RdRp [7]): micromolar affinity |
| CC(C)(C)c1ccc(Oc2cn(C3C=CC(O)C3)c(=O)n(C3C=CC(O)C3)c2=O)cc1 (centres unmarked) [Compound 10] | – | 418 ± 42 | 500 ± 30 | completely blocked RNA synthesis | > 50 | -0.5 | – | 0.8 | Inhibition of RNA binding by RdRp, EMSA (SARS-CoV-2 RdRp [6]): fully prevented RNA binding; log reduction at 2 µM (SARS-CoV-2 [4]; Severe acute respiratory syndrome coronavirus 2, Vero C1008, measured at 2 µM (footnote ***), Vero E6, vs DMSO-treated control, read-out: Δlog10(TCID50) SARS-CoV-2): 0.5 |
| CC(C)(C)c1ccc(-c2cc3cn(COCCO)c(=O)[nH]c-3n2)cc1 [Compound 14, 3-((2-(Hydroxy)ethoxy)methyl)-6-(4-tert-butylphenyl)-3H-pyrrolo [2,3-d]-pyrimidine-2-one] | Moderate activity | 74 ± 18 | 310 ± 24 | completely blocked RNA synthesis | ~1 | 1.5 | 1 | 0.4 | IC50 [3]: 244 ± 58 µM; Inhibition of RNA binding by RdRp, EMSA (SARS-CoV-2 RdRp [6]): fully prevented RNA binding; SI (selectivity index), the ratio of CD50 to IC50 ([1]; MDCK cells): 110.61; IC50 [1]: 0.67 ± 0.12 µM; Effect on SARS-CoV-2 infectivity, TCID50 in Vero cells (SARS-CoV-2 [4]; summary of Table 1): stronger effects; Effect on SARS-CoV-2 viral RNA titer (SARS-CoV-2 [2]; summary of Table 1): only weakly affected |
| Cc1c(C)c2c(c3c1CC[n+]1ccc(/C=C4\Sc5ccccc5N4C)cc1-3)-c1cccc(/C=C3\Sc4ccccc4N3C)[n+]1CC2 [PR673] | – | – | – | – | – | – | – | – | IC50 (SARS-CoV-2 RdRp [5]): ~4 µM |
| O=c1nc(NO)ccn1[C@@H]1O[C@H](CO)[C@@H](O)[C@H]1O [NHC, N4-hydroxycitidine, reference compound] | – | – | – | – | – | – | – | – | CD50 ± SD Vero E6 (Vero E6 cells; [8]): 80 ± 18 µM; Δlog10(RNA), logarithmic change in the SARS-CoV-2 RNA levels (SARS-CoV-2 [2]; measured at 10 µM (footnote *), Vero E6, vs DMSO): 3.9 * |
| CCCCCc1ccc(-c2cc3cn(COCCO)c(=O)[nH]c-3n2)cc1 [Compound 7, 3-((2-(Hydroxy)ethoxy)methyl)-6-(4-pentylphenyl)-3H-pyrrolo [2,3-d]-pyrimidine-2-one] | – | 74 ± 12 | 240 ± 19 | – | > 50 | 0.5 | 0 | 0.4 | Effect on SARS-CoV-2 infectivity, TCID50 in Vero cells (SARS-CoV-2 [4]; summary of Table 1): inactive; Effect on SARS-CoV-2 viral RNA titer (SARS-CoV-2 [2]; summary of Table 1): inactive |
| CCCCCc1ccc(-c2cc3cn([C@@H]4O[C@H](CO)[C@@H](O)[C@H]4O)c(=O)nc3o2)cc1 [Compound 4, 3-(β-D-Ribofuranosyl)-6-(4-pentylphenyl)-3H-furano [2,3-d]-pyrimidine-2-on] | – | 652 ± 77 | >500 | – | > 25 | 1 | – | 0.2 | log reduction at 20 µM (SARS-CoV-2 [4]; [10]): 0.5 |
| CCOC(=O)C1=C[C@@H](OC(CC)CC)[C@H](NC(C)=O)[C@@H](N)C1 [Oseltamivir, reference compound] | – | 500 ± 82 | – | – | 0.61 ± 0.15 | – | – | – | SI (selectivity index), the ratio of CD50 to IC50 ([1]; MDCK cells): 820 |
